Source: US10548321B2 (priority 2009, dated 2020)
Read-outs that look alike come from different tables or passages of the source.

System: Pyricularia oryzae
Format: cell-based
Conditions: single active, absorption at 405 nm 7 days after inoculation, 18° C

SMILES | Observed efficacy (0.004 ppm) | Observed efficacy (1 ppm)
COC(=O)N(OC)c1ccccc1COc1ccn(-c2ccc(Cl)cc2)n1 [Pyraclostrobin, pyraclostrobin] | 23% | –
CC1(C)C(C=C(Cl)Cl)C1C(=O)OC(C#N)c1cccc(Oc2ccccc2)c1 (stereo not drawn) [alpha-Cypermethrin, alpha-cypermethrin] | – | 1%
